The record followed here is patent US10597366B2, “Aryl ethers and uses thereof” (Peloton Therapeutics, Inc., priority 2013, dated 2020).

The EC50 is the concentration that produces a half-maximal response.

Where two headings read alike, the source gives them in different places.

Assay [1] relates to VEGFA concentration in medium of 786-O cells. The experiment in a line: VEGF ELISA Assay. It is filed as cell-based. The note with it: Homo sapiens. Here is the method: Each concentration had duplicated wells. About 20 hours later, medium was removed by suction and each well was supplied with 180 μL of growth medium. About 20 μl freshly-made 10× compound stocks were added to each well. […] The EC50 was calculated by GraphPad Prism using the dose-response-inhibition (four parameter) equation. The cell seeded plate was then subjected to CellTiter-Glo luminescence cell viability assay (Promega) by adding 50 μL of Celltiter Glo reagent into each well and shaking the plate for 8 minutes at 550 rpm (Thermomixer R, Eppendorf) then read luminescence signal in plate reader (3 second delay, 0.5 second/well integration time, Synergy 2 multi Detection Microplate reader) immediately.
Background: In an ELISA, binding on a coated surface is turned into a signal by an enzyme label.

Assay [2] has as its system 786-O-Hif-Luc cells (luciferase gene driven by multiple HIF responsive elements). The experiment in a line: Luciferase Assay. It is filed as cell-based. The note with it: 24 h, read-out: Mean Luciferease EC50. How it is done: A pool of infected cells were then selected against 2 μg/mL of puromycin (P8833, Sigma) for 10 days followed by limited dilution to select single clones.
Each concentration was tested in triplicate. After about 24 hours, luciferase activity was determined using ONE-Glo Luciferase Assay Reagent (E6110, Promega) following the manufacturer's recommended procedure. EC50 were calculated by using Dotmatics software.

Setting [3] is: 786-0, 786-O cells, read-out: Mean VEGF ELISA EC50.
The mark [4] stands for this setting: 786-O-Hif-Luc cells, about 24 hours.
Setting [5] is: 786-0, read-out: Mean VEGF ELISA EC50.

For `CS(=O)(=O)c1ccc(Oc2cc(F)cc(F)c2)c2c1C(O)C(F)(F)C2` (centres unmarked) [Compound 159, 4-(3,5-Difluorophenoxy)-2,2-difluoro-7-(methylsulfonyl)-2,3-dihydro-1H-inden-1-ol], the figures for the EC50 in assay [1] (setting [3]) and in assay [2] (setting [4]) were 7 nM and 5 nM, respectively.

With `O=S(=O)(c1ccc(Oc2cc(F)cc(Cl)c2)c(C(F)F)c1)C(F)(F)F` [Compound 124, 1-(3-Chloro-5-fluorophenoxy)-2-(difluoromethyl)-4-((trifluoromethyl)sulfonyl)benzene], the EC50 stood at 400 nM in assay [1] (setting [5]) and 330 nM in assay [2].

For `N#Cc1cc(F)cc(Oc2ccc(S(=O)(=O)C(F)F)cc2Br)c1` [Compound 132, 3-(2-Bromo-4-((difluoromethyl)sulfonyl)phenoxy)-5-fluorobenzonitrile], the results for the EC50 in assay [1] (setting [3]) and in assay [2] (setting [4]) were 680 nM and 1400 nM, respectively.

Regarding `N#Cc1cc(F)cc(Oc2ccc(C(F)(F)F)c3c2CC(F)(F)[C@H]3O)c1` [Compound 273, 3-[(1S)-2,2-Difluoro-1-hydroxy-7-(trifluoromethyl)indan-4-yl]oxy-5-fluoro-benzonitrile], the EC50 in assay [1] (setting [3]) was 6.2 nM; in assay [2] (setting [4]), 4.6 nM.

`N#Cc1cc(Oc2ccc(S(=O)(=O)C(F)(F)F)c3c2CC(F)(F)[C@H]3O)ccc1F` [Compound 228, (S)-5-((2,2-Difluoro-1-hydroxy-7-((trifluoromethyl)sulfonyl)-2,3-dihydro-1H-inden-4-yl)oxy)-2-fluorobenzonitrile]: the values for the EC50 in assay [1] (setting [3]) and in assay [2] (setting [4]) were 28 nM and 33 nM, respectively.

In the case of `N#Cc1cc(F)cc(Oc2ccc(S(=O)(=O)C(F)(F)F)c3c2CC(F)(F)[C@H]3O)c1` [Compound 185, (S)-3-((2,2-Difluoro-1-hydroxy-7-((trifluoromethyl)sulfonyl)-2,3-dihydro-1H-inden-4-yl)oxy)-5-fluorobenzonitrile], the results for the EC50 in assay [1] (setting [3]) and in assay [2] (setting [4]) were 4 nM and 3 nM, respectively.

For `CS(=O)(=O)c1ccc(Oc2cc(Cl)cc(C#N)c2)c2c1[C@H](O)C(F)(F)C2` [Compound 234, (S)-3-Chloro-5-((2,2-difluoro-1-hydroxy-7-(methylsulfonyl)-2,3-dihydro-1H-inden-4-yl)oxy)benzonitrile], the concentration giving a half-maximal response (EC50) in assay [1] (setting [5]) came to 50 nM; in assay [2] it was 41 nM.

In the case of `N#Cc1cc(F)cc(Oc2ccc(S(=N)(=O)CF)c3c2CC(F)(F)[C@H]3O)c1` (single isomer, unassigned) [Compound 274], the half-maximal effective concentration (EC50) in assay [1] (setting [3]) worked out at 1440 nM; in assay [2] (setting [4]), 190 nM.

Turning to `CS(=O)(=O)c1ccc(Oc2cc(F)cc(C#N)c2)c2c1[C@H](O)C(F)(F)[C@@H]2F` [Compound 292, 3-fluoro-5-[(1S,3R)-2,2,3-trifluoro-1-hydroxy-7-methylsulfonyl-indan-4-yl]oxy-benzonitrile], the concentration for a half-maximal effect (EC50) turned out to be 6.2 nM in assay [1] (setting [3]) and 3.1 nM in assay [2] (setting [4]).

In the case of `N#Cc1c(S(=O)(=O)C(F)(F)F)ccc(Oc2cc(F)cc(Cl)c2)c1Br` [Compound 98, 2-Bromo-3-(3-chloro-5-fluorophenoxy)-6-((trifluoromethyl)sulfonyl)benzonitrile], the values for the concentration for a half-maximal effect (EC50) in assay [1] (setting [3]) and in assay [2] (setting [4]) were 1580 nM and 3300 nM, respectively.

Regarding `N#Cc1cccc(Oc2ccc(S(=O)(=O)C(F)F)c3c2CC(F)(F)[C@H]3O)c1` [Compound 236, (S)-3-((7-((difluoromethyl)sulfonyl)-2,2-difluoro-1-hydroxy-2,3-dihydro-1H-inden-4-yl)oxy)benzonitrile], the half-maximal effective concentration (EC50) in assay [1] (setting [3]) is 16 nM; in assay [2] (setting [4]) it was 11 nM.

In the case of `O=S(=O)(c1ccc(Oc2ccc(F)cc2)c2c1[C@H](O)C(F)(F)C2)C(F)(F)F` [Compound 230, (S)-2,2-Difluoro-4-(4-fluorophenoxy)-7-((trifluoromethyl)sulfonyl)-2,3-dihydro-1H-inden-1-ol], the results for the half-maximal effective concentration (EC50) in assay [1] (setting [3]) and in assay [2] (setting [4]) were 29 nM and 16 nM, respectively.

`O=S(=O)(c1ccc(Oc2cc(F)cc(F)c2)c2c1[C@H](O)CC2)C(F)F` [Compound 2, (R)-7-((Difluoromethyl)sulfonyl)-4-(3,5-difluorophenoxy)-2,3-dihydro-1H-inden-1-ol]: the results for the EC50 in assay [1] (setting [3]) and in assay [2] (setting [4]) were 62 nM and 70 nM, respectively.
